Marks after values point to notes of the source that are not given here.
Experiments:
HECA-452 epitopes = experiment: Flow cytometric analysis of HECA-452 epitopes on human T-lymphocytes; assay type: cell-based
Protocol: Only positive cells, which were those cells with fluorescence above background autofluorescence and fluorochrome-conjugated secondary Ab staining, were analyzed.
For analysis of CLA expression on T-cells treated with glycoconjugate modifiers, CLA^+ T-cells were first pretreated with neuraminidase (0.1 U/ml at 37° C. for 1 h) to eliminate functional CLA and cleave all HECA-452 reactive epitopes from the cell surface (35–38). Since we wanted to investigate whether these compounds directly affected CLA expression and function, neuraminidase pretreatment followed by incubations with glycosylation modifiers allowed for examination of de novo synthesized CLA/HECA-452 epitopes re-expressed on the cell surface. After neuraminidase digestion, cells were then incubated with tunicamycin (0.02 mM) (an inhibitor of GlcNAc phosphotransferase, the initial step of N-glycosylation), swainsonine (0.23 mM) (an inhibitor of α-mannosidase II and complex-type N-glycosylation), 4-F-GlcNAc (0.05 mM) (putative inhibitor of poly-N-acetyllactosamine biosynthesis), BAG (an inhibitor of O-glycan biosynthesis) (<2 mM) or GlcNAc (5 mM) (negative control, naturally-occurring metabolic counterpart of 4-F-GlcNAc)for 30 h in the presence of human recombinant IL-2. […] Concentrations for BAG were selected based on maximal O-glycosylation inhibitory effects at non-growth inhibitory concentrations as previously reported (39). To determine a suitable concentration of 4-F-GlcNAc for examining glycoconjugate-modifying effects without influencing cell growth or protein synthesis, we performed preliminary growth inhibitory experiments of cells incubated with 4-F-GlcNAc for 2 cell doublings (˜36 h) at 37° C. (cell viability assessed by Trypan-blue exclusion).
Flow cytometric analysis was performed on human leukocytes utilizing both direct and indirect immunofluorescence staining approaches. All cells utilized for these experiments were washed twice with cold PBS/2%FBS and suspended at 10^7/ml PBS/1% FBS. Primary antibodies, anti-CLA (HECA-452), -CD4, -CD8, CD43 (L60) and PSGL-1 (PL-2) along with the appropriate isotype-matched control antibodies were incubated with the cells for 30 min on ice. Following two washes with PBS/2%FBS, cells were resuspended in PBS/1%FBS and fluorochrome-conjugated secondary antibodies (2 μl) and incubated for 30 min on ice.

[1] = tested on: HECA-452 epitopes on human hematopoietic KG1a cells; experiment: Flow cytometric analysis of HECA-452 epitopes on KG1a cells; assay type: cell-based; settings: KG1a, neuraminidase (1 hr)
Source text: (§1) In a similar set of experiments, we analyzed the effects of 4-F-GlcNAc on selectin ligand expression and function on the human hematopoietic cell line KGla. KGla cells express a distinct HECA-452-reactive CD44 glycoform that functions as both an E- and L-selectin ligand (Dimitroff, C. J. et al. (2001) J. Cell Biol., 53: 1277–1286; Dimitroff, C. J. et al. (2000) Proc. Nat. Acad. Sci., 97(25):13841–46; Sackstein, R. and Dimitroff, C. J. (2000) Blood, 96: 2765–74.), otherwise known as HCELL, respectively. This specialized glycoform represents a major E-selectin and the primary L-selectin ligand on normal CD34+ HPCs and on leukemic cells, and, therefore, is also implicated in the BM homing aspects and growth-related activities of HPCs in vivo, respectively (Id.). We first performed flow cytometric analysis of HECA-452 antigen and CD44 on 4-F-GlcNAc-treated KGla cells. […] Only positive cells, which were those cells with fluorescence above background autofluorescence and fluorochrome-conjugated secondary Ab staining, were analyzed.
(§2) Flow cytometric analysis was performed on human leukocytes utilizing both direct and indirect immunofluorescence staining approaches. All cells utilized for these experiments were washed twice with cold PBS/2%FBS and suspended at 10^7/ml PBS/1% FBS. Primary antibodies, anti-CLA (HECA-452), -CD4, -CD8, CD43 (L60) and PSGL-1 (PL-2) along with the appropriate isotype-matched control antibodies were incubated with the cells for 30 min on ice. Following two washes with PBS/2%FBS, cells were resuspended in PBS/1%FBS and fluorochrome-conjugated secondary antibodies (2 μl) and incubated for 30 min on ice. Cells were washed twice with PBS/2%FBS, resuspended in PBS and flow cytometry was performed on a FACScan apparatus equipped with an argon laser tuned at 488 nm (Becton Dickinson).

[2] = tested on: CD44 on human hematopoietic KG1a cells; experiment: Flow cytometric analysis of CD44 on KG1a cells; assay type: cell-based; settings: KG1a, neuraminidase (1 hr)
Source text: as §1, §2

[3] = tested on: HCELL/CD44 activity on human hematopoietic KG1a cells; experiment: Stamper-Woodruff adhesion assay, L-selectin-dependent lymphocyte adherence to KG1a cells; assay type: cell-based; settings: KG1a, neuraminidase (1 hr)
Source text: To study the effects of 4-F-GlcNAc on the function of the L-selectin binding activity of CD44 (HCELL), we employed the shear-based, Stamper-Woodruff adhesion assay to examine the ability of 4-F-GlcNAc-treated KG1a cells to support L-selectin-dependent lymphocyte adherence. This assay is utilized to specifically assess the shear-dependent binding interactions between L-selectin naturally expressed on lymphocytes and HCELL expressed on KG1a cells (Dimitroff, C. J. et al. (2000) Proc. Nat. Acad. Sci., 97(25):13841–46; Sackstein, R. and Dimitroff, C. J. (2000) Blood, 96: 2765–74.). Before treating KG1a cells with 0.05, 0.1 or 0.5 mM 4-F-GlcNAc, we first pretreated KG1a cells with Vibrio cholerae neuraminidase (0.1 U/ml for 1 hr at 37° C.) to cleave all terminal α2,3 sialic acid-bearing residues and eliminate all HCELL activity. Glutaraldehyde-fixed monolayers of KG1a cells that were first treated with Vibrio cholerae neuraminidase (0.1 U/ml for 1 hr at 37° C.) then re-cultured in the presence of 4-F-GlcNAc (0.05–0.5 mM) for 30 hr at 37° C. Metabolic inhibitors swainsonine, an inhibitor of α-mannosidase II, tunicamycin, an inhibitor of N-acetylglucosamine phosphototransferase, were also utilized to compare the relative potencies of known glycosylation inhibitors. Human peripheral blood lymphocytes (5×10^6cells/ml RPMI1640 w/o NaBicarbonate/5%FBS) were overlayed onto KG1a monolayers at 80 rpm for 30 min. at 4° C., and after gently washing in PBS, lymphocytes bound to cell monolayers were fixed in 3% glutaraldehyde. Re-expression of HCELL activity or HECA-452-reactive CD44 on KG1a cells was determined after […] of 4-F-GlcNAc treatment. Bound lymphocytes were quantified at 100× magnification from a minimum of 5 fields from 2 slides, and the mean number of lymphocytes (standard error of the mean) was calculated.

[4] = tested on: E-selectin ligand activity of murine Th1 cells; experiment: Flow chamber analysis of E-selectin binding on murine Th1 cells; assay type: cell-based, mouse; settings: neuraminidase treatment alone (0.1 U/ml for 1 hr at 37° C.)
Source text: (§3) CD4+ splenocytes were isolated from C57BL-6 mice by anti-murine CD4 L3T4 magnetic bead technology (Miltenyi Biotec) according to manufacturer's protocol. […] Culturing murine T helper cells in the presence of murine IL-12 and anti-murine IL-4 produces selectin binding Th1 cells by up-regulating FucTVII (69, 70) and core 2 enzyme (43–45, 71, 72), both critical for selectin ligand synthesis (i.e. decoration of PSGL-1 (67, 68)), and prevents the production of non-selectin binding Th2 cells (67–72). Th1 cells were also generated from mice deficient in α1,3 fucosyltransferase, FucTVII, and served as negative controls (33, 38, 40). Cells were harvested and re-plated at 2×10^6cells/ml on non-Ab coated plastic with murine IL-2 (20 ng/ml) in the presence or absence of murine IL-12 (10 ng/ml) and anti-murine IL-4 moAb 11B11 (10 μg/ml) for 48 h. […] Glycosylation inhibitors were added to cultures on day 6.5 for 30 hr, after first treating cells with neuraminidase (0.1 U/ml for 1 hr at 37° C.) to remove all cell surface terminal sialic acid resides and E and P-selectin ligand activity. Since selectin ligands are dependent on terminal sialic acid (α2,3 N-acetylneuraminic acid) for activity, this approach allowed for analysis of de novo synthesized selectin ligands in the presence of 0.05 mM 4-F-GlcNAc, N-glycan inhibitors, 0.23 mM swainsonine and 0.02 mM tunicamycin, and 1 mM GlcNAc (negative control).

[5] = tested on: P-selectin ligand activity of murine Th1 cells; experiment: Flow chamber analysis of P-selectin binding on murine Th1 cells; assay type: cell-based, mouse; settings: neuraminidase treatment alone (0.1 U/ml for 1 hr at 37° C.)
Source text: as §3

[6] = tested on: P-selectin ligand activity of CLA+ T-lymphocytes; experiment: Parallel-plate flow chamber, CLA+ T-cell tethering and rolling on P-selectin chimera; assay type: cell-based, human; settings: 0.1% for 1 h at 37° C.
Protocol: (§4) To analyze the affects of 4-F-GlcNAc on the function of CLA on human T-cells, we examined the ability of 4-F-GlcNAc-treated (0.05, 0.1, 0.5 mM for 30 hrs) CLA-+ T-cells cultures to engage with immobilized E- and P-selectin chimera in the parallel-plate flow chamber. As described for flow cytometric analyses (Example 13), cells were first pretreated with neuraminidase to remove terminal sialic acid residues required for HECA-452 reactivity and for E- and P-selectin ligand activity of CLA. This approach allowed for the assessment on de novo synthesized CLA molecules.
(§5) Tethering and rolling of human T-cells on recombinant human E- and P-selectin-Ig chimera (provided by Dr. Robert Fuhlbrigge, Harvard Medical School) and human L-selectin-Ig (gift from Dr. Ray Camphausen, Wyeth/Genetics Institute, Inc., Cambridge, Mass.) were analyzed in the parallel-plate flow chamber under physiologic shear stress conditions (3). To prepare E- and P-selectin-Ig chimera spots, protein A (300 μg/15 μl 0.1M NaHCO3) was adsorbed to Ten-twenty-nine™ Petri dishes for 2 h at 37° C. Human serum albumin ([…] PBS) then added and incubated for 2 h at 37° C. to block non-specific binding sites. E-selectin-Ig (50 ng/50 μl PBS) or P-selectin-Ig (50 ng/50 μl PBS) solutions was pipetted directly over the pre-existing protein A spots for 18 h at 4° C. To prepare L-selectin-Ig spots, L-selectin-Ig (300 ng/15 μl PBS) or isotype control human IgG (300 ng/15 μl) were adsorbed directly to plastic (non-protein A-coated) for 18 h at 4° C. and blocked in 100% FBS for 2 h at 4° C.
(§6) CLA^+ T-cells or freshly isolated PBL were treated with neuraminidase and metabolic glycosylation inhibitors or with protease (bromelain) as described above, washed twice in HBSS, suspended at 2×10^6/ml in HBSS/10 mM HEPES/2 mM CaCl2 (H/H/Ca^++) and infused into the chamber over selectin chimeras. Protease treatment was performed to control for residual E-selectin activity not attributable to the expression of CLA on a protein scaffold. Cell tethering was permitted at 0.6 dynes/cm^2 for 1 min, then stepwise increments in shear stress every 15 sec were employed to a final shear stress level of 60 dynes/cm^2. The number of cells rolling/viewing field (at 100× magnification) was quantified at each level of shear stress in triplicates for a minimum of three experiments. […] Negative control experiments were performed in parallel, wherein cell binding was examined in H/H adhesion assay medium containing 5 mM EDTA as well as assaying cell binding to human IgG isotype control.
(§7) Utilizing the parallel-plate flow chamber under physiologic shear stress conditions, E-, P- and L-selectin ligand activities of human CLA^+ T-cells treated were analyzed in an identical manner as cells prepared for Western blotting and autoradiography studies.

[7] = tested on: E-selectin ligand activity of CLA+ T-lymphocytes; experiment: Parallel-plate flow chamber, CLA+ T-cell tethering and rolling on E-selectin chimera; assay type: cell-based, human; settings: 0.1% for 1 h at 37° C.
Protocol: as §4, §5, §6, §7

[8] = tested on: L-selectin ligand activity of human CLA+ T-cells; experiment: Parallel-plate flow chamber, CLA+ T-cell rolling on L-selectin chimera; assay type: cell-based; settings: 0.1% for 1 h at 37° C.
Protocol: as §5, §6, §7

| Substance | HECA-452 Mean Channel Fluorescence (HECA-452 epitopes; CLA+ T-cells, neuraminidase (1 hr)) | HECA-452 Mean Channel Fluorescence [1] | CD44 % Positive Cell Staining [2] | % Inhibition (lymphocyte binding) [3] | Mean Lymphocyte Binding [3] | E-selectin ligand activity of Th1 cells [4] | P-selectin ligand activity of Th1 cells [5] | HECA-452 expression by flow cytometry (HECA-452 epitopes; CLA^low T-cells or PBL after bromelain digestion) | P-selectin ligand activity [6] | remaining E-selectin ligand activity [7] | L-selectin ligand activity [8] |
| --- | --- | --- | --- | --- | --- | --- | --- | --- | --- | --- | --- |
| neuraminidase: Vibrio cholerae neuraminidase, cleaves terminal sialic acid residues | 27 | 43 | 100% | 98* % | 4.2 | decreased E and P-selectin ligand activity to baseline levels | decreased E and P-selectin ligand activity to baseline levels |  |  |  |  |
| bromelain |  |  |  |  |  |  |  | relatively unchanged | completely eliminated | < 25 % of control | completely eliminated |

— patent publication US7098195B2, “Fluorinated glucosamine analogs useful for modulating post-translational glycosylations on cells” (Health Research, Inc., priority 2001, dated 2006)
